From patent publication US11963966B2, “Compositions and methods for treating ovarian tumors” (Dana-Farber Cancer Institute, Inc., priority 2017, dated 2024)
Where two headings read alike, the source gives them in different places.

What was measured:
[1] = tested on: PDX model DF20 malignant ascites; experiment: PDX model DF20, IP injected cancer cells (malignant ascites), IP JSI-124 vs vehicle, BLI; format: in vivo, mice
Procedure: FIG. 7A-FIG. 7E are a series of graphs and images that depict the impact of JAK/STAT-inhibition on spheroid formation in vivo and anti-tumor activity. […] Each of these were performed following intraperitoneal (IP) or subcutaneous (SC) injection of cancer cells followed by IP therapy with JSI-124 vs. vehicle. Each group includes 5 mice. The inverted triangle indicates the time=0 of cancer cell injection. […] Mice were injected IP with tumor cells and one week later started treatment for a total 14 days. Each group includes 5 mice. Y-axis indicates log of bioluminescence imaging (BLI) signal (log total flux in p/s). Values are given as mean of log BLI signal, error bars indicate standard deviation from the mean. ***p<0.0001 (two-sided t test comparing mean±STDEV at Day 15 of treatment). […] Each group includes 5 mice. Y-axis indicates log BLI signal (log total flux in p/s). Values are given as mean of log BLI signal, error bars indicate standard deviation from the mean. ***p<0.0001 (two-sided t test comparing mean±STDEV at Day 15 of treatment). […] Mice were injected SC with tumor cells and one week later started treatment for a total 14 days. Each group includes 5 mice. Y-axis indicates log BLI signal (log total flux in p/s). Values are given as mean of log BLI signal, error bars indicate standard deviation from the mean. ***p<0.0001 (two-sided t test comparing mean±STDEV at Day 15 of treatment). […] Each group includes 5 mice. Y-axis indicates log BLI signal (log total flux in p/s). Values are given as mean of log BLI signal, error bars indicate standard deviation from the mean. ***p<0.0001 (two-sided t test comparing mean±STDEV at Day 15 of treatment).

[2] = tested on: OVACR8; experiment: Screen of 14 JAK/STAT pathway inhibitors, CellTiterGlo viability, 2D and 3D cultures; format: cell-based; settings: OVACR8, 1 μM, 2D and 3D culture
Procedure: FIG. 6A-FIG. 6G are a series of graphs and images depicting the impact of JAK/STAT-inhibition on spheroid formation, invasion and killing ex vivo and in vitro. FIG. 6A a histogram (FIG. 11B), showing drug screening with 14 compounds (at 1 μM) inhibiting the JAK/STAT pathway in OVACR4. Relative viability compared to DMSO control measured by CTG. […] The same library was screened in 2D-cultures of OVACR4 (FIG. 11A), and 2D-cultures of OVACR8 (FIG. 11C) and 3D-cultures of OVACR8 (FIG. 11D). FIG. 6B is a series of plots showing drug sensitivity testing using the GILA assay in platinum-resistant ex vivo spheroid cultures of patients DF3291 and DF3266, The X-axis indicates the log μM concentration of drugs indicated in the legend, Y-axis indicates the percentage of luminescence signal as indicator for viability relatively to DMSO treated cells. In both patients, half maximal effective concentration (EC50) were ˜100 nM and ˜10 nM, respectively, while other drugs routinely used for the treatment of (platinum-resistant) ovarian cancer had EC50>10 μM. […] 20 spheroids clusters were analyzed for each iteration. […]
FIG. 11A-FIG. 11E are a series of histograms of OVACR4 and OVACR8 ovarian cancer cell lines grown in 2D and 3D cultures and treated with 14 JAK/STAT pathway inhibitors at 1 μM. Vability of the cells was determined using the CellTiterGlo assay. […]

[3] = tested on: platinum-resistant ex vivo spheroid cultures of patients DF3266, DF3288, DF3291; experiment: Drug sensitivity testing with the growth in low attachment (GILA) assay; format: cell-based
Procedure: FIG. 6A-FIG. 6G are a series of graphs and images depicting the impact of JAK/STAT-inhibition on spheroid formation, invasion and killing ex vivo and in vitro. FIG. 6A a histogram (FIG. 11B), showing drug screening with 14 compounds (at 1 μM) inhibiting the JAK/STAT pathway in OVACR4. Relative viability compared to DMSO control measured by CTG. […] The same library was screened in 2D-cultures of OVACR4 (FIG. 11A), and 2D-cultures of OVACR8 (FIG. 11C) and 3D-cultures of OVACR8 (FIG. 11D). FIG. 6B is a series of plots showing drug sensitivity testing using the GILA assay in platinum-resistant ex vivo spheroid cultures of patients DF3291 and DF3266, The X-axis indicates the log μM concentration of drugs indicated in the legend, Y-axis indicates the percentage of luminescence signal as indicator for viability relatively to DMSO treated cells. In both patients, half maximal effective concentration (EC50) were ˜100 nM and ˜10 nM, respectively, while other drugs routinely used for the treatment of (platinum-resistant) ovarian cancer had EC50>10 μM. FIG. 6C is a series of images of microscopic analysis of spheroids with different drug treatments to highlight the morphologic changes during therapy with drugs listed. Inhibition of JAK/STAT pathway disrupts ex vivo spheroid cultures. […] The X-axis indicates established ovarian cancer cell line ID. Y-axis indicates the relative number of formed spheroids when treated with either JSI-124 or carboplatin compared to untreated parental controls. Error bars indicate the standard deviation from the mean number of spheroids. […] JAK/STAT inhibition prevents spheroid formation. […] The Y-axis indicates the clearance ability (using arbitrary units). 20 spheroids clusters were analyzed for each iteration. Data is shown as mean (horizontal bar), interquartile range (box), and minimum and maximum (whiskers). Statistical analysis was performed using 1-way analysis of variance (ANOVA) and post hoc Tukey-Kramer **P<0.05. […] FIG. 6G is a histogram showing the inhibition of the JAK/STAT pathway.
Single-cell RNA-sequencing was performed on these platinum-resistant patient samples, using the growth in low attachment (GILA) assay (Rotem et al., 2015 Proc. Natl. Acad. Sci. U.S.A, 112:5708-5713; B. Izar and A. Rotem, 2016 Curr. Protoc. Mol. Biol., 116:28.8.1-28.8.12). […] In contrast, all spheroid cultures were resistant to carboplatin, cisplatin, olaparib and paclitaxel at a similar dose range, with the exception of cisplatin with an EC50 of ˜10 μM in patients DF3266 and DF3288.

[4] = ascites allowed to form 3 weeks, then IP treatment 14 days
[5] = tumor cells IP, 7 days growth, then 14 days IP therapy

Q: With `CC(C)(O)/C=C/C(=O)[C@](C)(O)[C@H]1[C@@H](O)C[C@@]2(C)[C@@H]3CC=C4[C@H](C=C(O)C(=O)C4(C)C)[C@]3(C)C(=O)C[C@]12C` [JSI-124, cucurbitacin I] as the molecule, how does the “BLI signal of established malignant ascites” value [1, 4] read?
A: The value was “significant reduction in BLI signal of malignant ascites”.

Q: What about the “mean day 15 log BLI signal±standard deviation” value [1, 4] of the same molecule?
A: Its value is 1.29×10^9±6×10^8 p/s.

Q: And the “Development of malignant ascites” value [1, 5]?
A: Its value is “completely abrogated development of malignant ascites”.

Q: And the “mean day 15 log BLI signal±standard deviation” value [1, 5]?
A: The value was 1.47×10^8±6.5×10^7 p/s.

Q: And the “Viability (CellTiterGlo), cell killing” value [2]?
A: Its value is “most effective compound leading to cell killing”.

Q: And the Emax ([3]; Homo sapiens)?
A: Its Emax is at most 99%.

Q: And the EC50 ([3]; Homo sapiens, read-out: EC50 (viability, luminescence relative to DMSO), patient DF3266)?
A: Its EC50 is about 10 nM.

Q: And the EC50 ([3]; Homo sapiens, read-out: EC50 (viability, luminescence relative to DMSO), patient DF3291)?
A: The EC50 was about 100 nM.

Q: What about the “EC50 values, single-agent cytotoxic activity” value ([3]; all tested models (DF3266, DF3288, DF3291)) of the same molecule?
A: The value was “nanomolar ranges”.
